Laboratory results from US20070015770A1 (priority 2003, published 2007).
Where two headings read alike, the source gives them in different places.

System: Pyricularia oryzae
Type: in vivo
Conditions: individual active compound, rice seedlings Tai-Nong 67, protective spray, evaluated 6 days after inoculation

Structure (SMILES): CC1CCN(c2c(-c3c(F)cc(F)cc3F)c(Cl)nc3ncnn23)CC1 [I, 5-chloro-7-(4-methylpiperidin-1-yl)-6-(2,4,6-trifluorophenyl)-[1,2,4]triazolo[1,5-a]pyrimidine]
- Efficacy in % of the untreated control (1 ppm in the spray liquor): 16%
- Efficacy in % of the untreated control (4 ppm in the spray liquor): 28%

Structure (SMILES): C[C@H](Nc1c(-c2c(F)cc(F)cc2F)c(Cl)nc2ncnn12)C(F)(F)F [comparative compound B]
- Efficacy in % of the untreated control (1 ppm in the spray liquor): 4%
- Efficacy in % of the untreated control (4 ppm in the spray liquor): 40%

Structure (SMILES): COCC(=O)N(c1c(C)cccc1C)[C@H](C)C(=O)OC [II (metalaxyl-M), methyl N-(methoxyacetyl)-N-(2,6-xylyl)-D-alaninate]
- Efficacy in % of the untreated control (4 ppm in the spray liquor): 0%

Structure (SMILES): CC1CCN(c2c(-c3c(F)cccc3Cl)c(Cl)nc3ncnn23)CC1 [comparative compound A]
- Efficacy in % of the untreated control (1 ppm in the spray liquor): 0%
- Efficacy in % of the untreated control (4 ppm in the spray liquor): 4%
